One compound from patent US20090053280A1, “COATING STENTS WITH CYCLIC RGD PEPTIDES OR MIMETICS” (priority 2007, published 2009) can be followed below.

“Also recorded” adds a separate entry of the source.

The experiment relates to Human umbilical vein endothelial cells. The experiment is described as follows: Millicell migration assay of HUVECs towards a cyclic RGD peptide coated membrane. To be noted: 2 hours, uncoated membranes. Type of experiment: cell-based. The procedure:
FIG. 7 (Example 5): Bar graph showing the results of migration assays utilizing specialized Millicell culture plates for in vitro testing. HUVECs were seeded onto the inside surface of Millicell membranes and semi-quantified following migration through a microporous membrane at the outside surface after two hours of incubation.
Millicell culture plate inserts from Millipore were coated with cyclic RGD peptide at the outside surface of the microporous membrane only to stimulate haplotactic cell migration. Human umbilical vein endothelial cells (HUVCEs) were loaded into millicell chambers in completed medium in the presence or absence of paclitaxel or sirolimus, and subsequently incubated for 2 hours at 37 C.°.

`CC(=O)O[C@H]1C(=O)[C@@]2(C)[C@H]([C@H](OC(=O)c3ccccc3)[C@]3(O)C[C@H](OC(=O)[C@H](O)[C@@H](NC(=O)c4ccccc4)c4ccccc4)C(C)=C1C3(C)C)[C@]1(OC(C)=O)CO[C@@H]1C[C@@H]2O` [paclitaxel]: the “Cell migration in the presence of the antiproliferative drug” value is recorded as “marked decrease; also recorded: almost completely abolished”.
